Tests used:
[1] = target: T1, HusA W130N (Porphyromonas gingivalis, UniProt Q7MSY3, W130N); assay: Tryptophan fluorescence quenching assay, HusA mutant W130N; type: binding
T1 sequence (Q7MSY3 24-218 W130N): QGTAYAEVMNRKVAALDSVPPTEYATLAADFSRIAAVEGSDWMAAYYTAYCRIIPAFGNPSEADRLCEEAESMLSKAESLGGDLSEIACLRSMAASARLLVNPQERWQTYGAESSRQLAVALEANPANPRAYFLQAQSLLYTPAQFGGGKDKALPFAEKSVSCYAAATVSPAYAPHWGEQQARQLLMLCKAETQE

[2] = tested on: HusA; assay: Acid-alkaline transition of UV-vis spectra, haemin bound to HusA and Y164A/F mutants; type: physicochemical, Porphyromonas gingivalis; conditions: haemin bound to HusA and the Y164A/F mutants
Procedure: (§1) Spectra were recorded in 0.1 M NaCl with 0.1 M of the following buffers: citrate, pH 5.0; BisTris-HCl, pH 5.5; BisTris-HCl, pH 5.75: BisTris-HCl, pH 6.0; sodium phosphate, pH 6.5; sodium phosphate, pH 7.0; sodium phosphate, pH 7.5; Tris-HCl, pH 8.0; sodium borate, pH 9.0; sodium borate/NaOH, pH 9.8; sodium carbonate, pH 10.0 (not all titration points were collected for each protein)

[3] = type: physicochemical; conditions: aqueous haemin, 5 µM
Procedure: as §1

[4] = tested on: HusA NNNA; assay: Haemin binding to HusA mutant with all four mutations (NNNA), UV-vis and fluorescence; design: species or system Porphyromonas gingivalis; conditions: mutant incorporating all four mutations (L123, V124, W130, Y164)
Procedure: All absorbance spectra were recorded at room temperature using 10-mm quartz cuvettes on a Shimadzu UV-1601 or Jasco V-630 spectrophotometer. Mixtures of HusA/mutant with porphyrins were prepared by dissolving porphyrin stocks in standard buffer to a final concentration of 5–20 μM with a 1–1.5 molar ratio of protein to porphyrin, as specified in the relevant figure legends. PPIX:HusA mixtures were prepared by incremental addition of 2–4 μM HusA with a 10–15 min wait after each addition of HusA.
The quenching of intrinsic tryptophan fluorescence of HusA upon porphyrin additions was measured using a Carey Eclipse Fluorescence Spectrophotometer (Agilent) set to a photo multiplier effect (PME) of 850. A 5-mm path length quartz cuvette was used and all spectra were acquired at room temperature. Excitation was set to 295 nm and emission was measured from 300 nm to 500 nm using excitation/emission slit widths of 5 nm. Binding assays were performed at a protein concentration of 1 μM HusA in standard buffer at a working volume of 0.5 mL. […] The fluorescence quenching of HusA by PPIX was investigated in a similar manner with the following difference: the fluorescence intensities of ten 1 μM HusA samples were measured each with increasing amounts of PPIX after a 2-h incubation period to allow equilibrium to be reached. […]

[5] = tested on: H413 gingival epithelial cells; type: cell-based, Human; conditions: concentrations above 0.5 µM; 1 h or 2 h
Procedure: As P8 could penetrate epithelial cells, the cell membrane integrity was tested using lactate dehydrogenase (LDH) assay. LDH is readily released following cellular membrane damage. As per manufacturer’s instructions (Thermo Fisher Scientific, Australia), H413 cells were treated with P8 at various concentrations and incubated for 1 h and 2 h, respectively. The drug solubilisation medium DMSO and metronidazole were used as controls. The positive control provided by the manufacturer was used to determine the maximal LDH release and the ratio of corrected values obtained for the experimental groups relative to maximum LDH release represented cytotoxicity. The fluorescence intensity was recorded on SpetraMax® i3 (Molecular Devices, Australia).
Supplementary Figure 23. (A) UV-vis spectra of 10 µM P8 alone and in the presence of 10 µM HusA. (B) Stability assay of P8 in the presence of gingival epithelial cell lysate. The intensity of P8 fluorescence was applied to monitor the stability of P8 in the presence of cell lysate. (C) Confocal microscope analysis of the progressive uptake of P8 by H413 gingival epithelial cell over a 2 h period.
The fluorescent P8 is shown in red and the nuclei stained by DAPI are shown in blue. Scale bar, 25 µm. (D) Lactate dehydrogenase cytotoxicity assay of H413 gingival epithelial cells treated with P8 at various concentrations for 1 h or 2 h incubation. […]

| SMILES | reduction of haemin affinity compared to wild-type [1] [%] | pKa of acid-alkaline transition [2] | pKa of acid-alkaline transition ([2]; listed as haem) | pKa of acid-alkaline transition [3] | binding to haemin [4] | cell toxicity (LDH release) [5] |
| --- | --- | --- | --- | --- | --- | --- |
| C=CC1=C(C)c2cc3[nH]c(cc4nc(cc5[nH]c(cc1n2)c(C)c5CCC(=O)O)C(CCC(=O)O)=C4C)c(C)c3C=C.[Fe+3] [haemin] | > 50 | 6.1–6.5 | 6-6.5 | 6.7 | minimal binding |  |
| CC1=Cc2cc3[nH]c(cc4nc(cc5[nH]c(cc1n2)cc5C)C(C)=C4CCC(=O)N[C@@H](CCCCNC(=O)OC(C)(C)C)C(=O)NCCn1c([N+](=O)[O-])cnc1C)c(CCC(=O)O)c3C [P8] |  |  |  |  |  | does not induce cell toxicity |

Source: article PMC6173696, “Structural properties of a haemophore facilitate targeted elimination of the pathogen Porphyromonas gingivalis” (Nature Communications, 2018)
